Measurements taken from US8426179B2, “Synthetic peptide and peptide conjugates and related tissue coupling methods via transglutaminase enzyme” (priority 2007, dated 2013).
Entries after “also recorded” stand apart in the source; their conditions may differ. Residues, ends and D or L forms follow the SMILES beside them. No end group written: not given here. *: point of attachment. X1 = C[C@]12CCC(=O)C=C1CC[C@@H]1[C@@H]2[C@@H](O)C[C@@]2(C)[C@H]1CC[C@]2(O)C(=O)COC(=O)CCC(=O)*

How the values were obtained:
[1] = Hydrolysis of the hydrocortisone prodrug in normal synovial fluid; format: in vitro ADME, bovine
Method: A 30 μL portion of each sample was collected at 0.5, 1, 2, 4, 7, 24, and 48 hours and added to a 60 μL mixture of water:acetonitrile:TFA (79:20:1) to prevent further hydrolysis. This solution also contained 2 mM 6α-methyl prednisolone as an internal standard. The samples were then stored at −20° C. until analyzed with RP-HPLC and eluted with a linear gradient of 24-55% acetonitrile in water with 0.1% TFA. The amount of hydrocortisone hydrolyzed from the prodrug was determined by comparing its peak area to that of 6α-methyl prednisolone. The T50% of the prodrug was calculated from 0.693/S, where S is the mean slope giving the best correlation coefficient in the linear part of the logarithmic curve of unhydrolyzed prodrug (1-[hydrocortisone]) versus time. […] Thirty microliter samples were collected at 10, 20, 30, and 60 minutes and analyzed as previously described.

[2] = Release of hydrocortisone from coupled prodrugs on the articular surface of cartilage
Method: After the overnight rinse in Buffer 2 with protease inhibitors and the subsequent washes with Buffer 1, each sample was incubated in 100 μL of sterile Buffer 1, normal bovine synovial fluid, or human osteoarthritic synovial fluid at 37° C. […] At the end of the experiment, the samples were digested and analyzed as previously described.

[3] = system: articular surface of cartilage; test: Coupling of hydrocortisone prodrugs to the articular surface of cartilage via tTG; format: biochemical, bovine; conditions: in the absence of tTG
Method: Modified tissue samples were immersed in tissue freezing media and frozen at −80° C. until use. Tissue slices (25 μm thick) were cut using a cryostat (Microm HM505N, Carl Zeiss) and the freezing media was removed with 3 washes of Buffer 1. Blocking was performed with 4% goat serum in Buffer 1 (blocking buffer) for 1 hour at room temperature. The tissue sections were then incubated with 10 μg/mL mouse anti-hydrocortisone antibody for 1.5 h in the blocking buffer at room temperature, rinsed 3 times with Buffer 1 for 5 minutes each, and then incubated with fluorescein conjugated goat anti-mouse antibody (1/200) in blocking buffer for 1 hour. Samples were rinsed again with Buffer 1 and then imaged using a Leica epifluorescent microscope (λex=495 nm, λem=520 nm for fluorescein) and a SPOT RT digital camera (Diagnostic Instruments, Sterling Heights, Mich.).

osteonectin = biological target: T1, osteonectin (Homo sapiens, UniProt P09486); test: Reaction of peptide conjugates with cartilage ECM protein in solution via tTG; format: biochemical; conditions: for reactivity / normalized band intensity on western blot: osteonectin, 500 μM conjugate, 0.05 U/mL tTG, 30 min at 37° C.; for number of conjugate molecules coupled per protein (MALDI-TOF): osteonectin with tTG
T1 construct: purchased Biodesign, Saco, Me
T1 sequence (P09486 18-303): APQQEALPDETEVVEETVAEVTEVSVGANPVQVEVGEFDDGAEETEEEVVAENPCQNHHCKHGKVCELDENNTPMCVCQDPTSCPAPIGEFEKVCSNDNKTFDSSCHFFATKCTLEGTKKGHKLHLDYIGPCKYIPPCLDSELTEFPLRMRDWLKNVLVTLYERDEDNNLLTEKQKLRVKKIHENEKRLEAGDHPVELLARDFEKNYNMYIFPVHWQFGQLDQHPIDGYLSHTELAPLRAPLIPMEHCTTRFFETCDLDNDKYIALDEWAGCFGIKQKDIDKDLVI
Method: (§1) Fibronectin, collagen II, osteonectin, and osteopontin were separately combined at 0.1% (w/v) in 100 mM Tris and 5 mM CaCl2 with 500 μM peptide-PEG conjugates and 0.05 U/mL tTG. The reaction was allowed to proceed for 30 min at 37° C. and then stopped with the addition of iodoacetamide (1 mM final concentration). Control experiments without transglutaminse were also performed. The proteins were then separated using SDS-PAGE with either 7.5% fibronectin and collagen II) or 10% (osteonectin and osteopontin) gels, transferred to PVDF membranes which were then blocked with 2% BSA in TBS with 0.1% Tween (TBS-T). The modified proteins were probed with peroxidase conjugated ExtrAvidin. Detection of bound ExtrAvidin was accomplished using ECL Plus Western Blotting Detection Reagents and imaged on a Storm 860 imager (GE Healthcare Biosciences, Piscataway, N.J.). Band intensities were measured using ImageQuant (GE Healthcare Biosciences). Statistical analysis was performed using one-way ANOVA and Tukey's post-hoc test with 95% confidence intervals with SPSS (SPSS, Chicago, Ill.). Reactions of B72Q and B72K with osteonectin and osteopontin were dialyzed against 10 mM acetic acid and then analyzed by MALDI-TOF MS.

Fibronectin = biological target: T2, Fibronectin (Homo sapiens, UniProt P02751); test: as above; format: biochemical; conditions: 500 μM conjugate, 0.05 U/mL tTG, 30 min at 37° C.
T2 construct: purchased Sigma, St. Louis, Mo
T2 sequence (P02751 32-2477, species assumed): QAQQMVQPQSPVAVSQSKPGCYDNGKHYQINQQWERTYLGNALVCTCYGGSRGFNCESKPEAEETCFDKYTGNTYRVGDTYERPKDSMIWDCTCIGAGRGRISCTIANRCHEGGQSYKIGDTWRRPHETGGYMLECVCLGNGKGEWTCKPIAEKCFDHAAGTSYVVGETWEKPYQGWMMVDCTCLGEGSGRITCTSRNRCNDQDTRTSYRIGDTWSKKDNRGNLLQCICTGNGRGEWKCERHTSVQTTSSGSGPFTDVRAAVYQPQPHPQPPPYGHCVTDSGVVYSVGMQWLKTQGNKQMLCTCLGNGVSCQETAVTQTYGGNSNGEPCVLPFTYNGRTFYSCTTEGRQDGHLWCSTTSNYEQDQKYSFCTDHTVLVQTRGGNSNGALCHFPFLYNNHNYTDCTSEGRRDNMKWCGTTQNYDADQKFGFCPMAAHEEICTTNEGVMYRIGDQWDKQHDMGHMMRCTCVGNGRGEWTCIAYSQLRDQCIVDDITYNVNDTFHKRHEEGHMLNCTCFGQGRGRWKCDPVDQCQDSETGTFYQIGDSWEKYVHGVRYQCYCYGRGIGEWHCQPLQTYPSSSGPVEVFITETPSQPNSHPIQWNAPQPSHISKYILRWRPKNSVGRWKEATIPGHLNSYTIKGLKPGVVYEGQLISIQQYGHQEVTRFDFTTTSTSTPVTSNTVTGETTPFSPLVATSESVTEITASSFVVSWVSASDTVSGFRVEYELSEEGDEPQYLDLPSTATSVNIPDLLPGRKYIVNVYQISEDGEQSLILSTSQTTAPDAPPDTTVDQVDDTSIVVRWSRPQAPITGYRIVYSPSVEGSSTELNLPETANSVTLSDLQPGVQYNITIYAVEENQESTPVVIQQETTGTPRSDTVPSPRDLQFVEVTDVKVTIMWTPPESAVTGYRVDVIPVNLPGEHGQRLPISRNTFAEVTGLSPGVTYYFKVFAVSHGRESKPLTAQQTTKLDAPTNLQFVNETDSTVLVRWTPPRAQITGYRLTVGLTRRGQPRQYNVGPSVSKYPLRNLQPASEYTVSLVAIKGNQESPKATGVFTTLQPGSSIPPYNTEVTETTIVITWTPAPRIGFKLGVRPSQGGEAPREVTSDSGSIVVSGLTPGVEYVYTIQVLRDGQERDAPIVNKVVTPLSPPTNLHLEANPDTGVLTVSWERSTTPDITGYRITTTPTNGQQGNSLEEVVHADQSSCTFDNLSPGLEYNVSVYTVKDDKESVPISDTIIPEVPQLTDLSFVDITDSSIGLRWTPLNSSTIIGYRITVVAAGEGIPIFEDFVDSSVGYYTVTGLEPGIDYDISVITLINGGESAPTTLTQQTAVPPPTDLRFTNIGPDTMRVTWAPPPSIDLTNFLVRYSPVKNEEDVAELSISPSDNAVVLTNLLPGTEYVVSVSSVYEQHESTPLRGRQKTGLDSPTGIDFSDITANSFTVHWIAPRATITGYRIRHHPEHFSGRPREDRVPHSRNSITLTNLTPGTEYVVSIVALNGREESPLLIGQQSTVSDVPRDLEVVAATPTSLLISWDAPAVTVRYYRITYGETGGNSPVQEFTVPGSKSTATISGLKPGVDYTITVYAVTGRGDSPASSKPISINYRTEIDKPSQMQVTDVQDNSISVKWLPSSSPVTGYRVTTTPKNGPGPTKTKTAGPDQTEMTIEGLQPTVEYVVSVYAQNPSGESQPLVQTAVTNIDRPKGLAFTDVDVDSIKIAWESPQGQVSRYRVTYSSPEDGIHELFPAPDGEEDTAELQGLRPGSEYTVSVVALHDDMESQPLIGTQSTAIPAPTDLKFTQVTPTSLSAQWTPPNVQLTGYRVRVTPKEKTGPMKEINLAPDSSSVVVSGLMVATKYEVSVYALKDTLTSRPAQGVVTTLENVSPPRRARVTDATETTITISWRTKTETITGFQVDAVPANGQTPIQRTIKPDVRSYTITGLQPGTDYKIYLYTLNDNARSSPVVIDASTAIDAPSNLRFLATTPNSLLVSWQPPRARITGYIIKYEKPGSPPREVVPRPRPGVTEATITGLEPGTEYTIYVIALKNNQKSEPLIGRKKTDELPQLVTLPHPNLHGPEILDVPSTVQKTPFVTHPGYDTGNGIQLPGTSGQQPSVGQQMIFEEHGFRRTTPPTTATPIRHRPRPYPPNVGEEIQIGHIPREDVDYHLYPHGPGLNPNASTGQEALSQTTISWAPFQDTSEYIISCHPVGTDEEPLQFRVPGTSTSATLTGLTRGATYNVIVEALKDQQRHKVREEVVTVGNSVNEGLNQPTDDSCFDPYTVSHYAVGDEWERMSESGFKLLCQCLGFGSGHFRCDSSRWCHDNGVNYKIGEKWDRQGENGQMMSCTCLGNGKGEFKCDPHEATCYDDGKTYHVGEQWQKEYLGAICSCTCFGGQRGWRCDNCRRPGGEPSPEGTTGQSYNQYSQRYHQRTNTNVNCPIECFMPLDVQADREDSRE
Method: as §1

collagen II = biological target: T3, collagen II (Homo sapiens, UniProt P02458); test: as above; format: biochemical; conditions: type II collagen, 500 μM conjugate, 0.05 U/mL tTG, 30 min at 37° C.
T3 construct: isolated by pepsin digestion, which yields primarily the triple helical region of collagen II; purchased Chondrex, Redmond, Wash
T3 sequence (P02458 201-1214 limits assumed): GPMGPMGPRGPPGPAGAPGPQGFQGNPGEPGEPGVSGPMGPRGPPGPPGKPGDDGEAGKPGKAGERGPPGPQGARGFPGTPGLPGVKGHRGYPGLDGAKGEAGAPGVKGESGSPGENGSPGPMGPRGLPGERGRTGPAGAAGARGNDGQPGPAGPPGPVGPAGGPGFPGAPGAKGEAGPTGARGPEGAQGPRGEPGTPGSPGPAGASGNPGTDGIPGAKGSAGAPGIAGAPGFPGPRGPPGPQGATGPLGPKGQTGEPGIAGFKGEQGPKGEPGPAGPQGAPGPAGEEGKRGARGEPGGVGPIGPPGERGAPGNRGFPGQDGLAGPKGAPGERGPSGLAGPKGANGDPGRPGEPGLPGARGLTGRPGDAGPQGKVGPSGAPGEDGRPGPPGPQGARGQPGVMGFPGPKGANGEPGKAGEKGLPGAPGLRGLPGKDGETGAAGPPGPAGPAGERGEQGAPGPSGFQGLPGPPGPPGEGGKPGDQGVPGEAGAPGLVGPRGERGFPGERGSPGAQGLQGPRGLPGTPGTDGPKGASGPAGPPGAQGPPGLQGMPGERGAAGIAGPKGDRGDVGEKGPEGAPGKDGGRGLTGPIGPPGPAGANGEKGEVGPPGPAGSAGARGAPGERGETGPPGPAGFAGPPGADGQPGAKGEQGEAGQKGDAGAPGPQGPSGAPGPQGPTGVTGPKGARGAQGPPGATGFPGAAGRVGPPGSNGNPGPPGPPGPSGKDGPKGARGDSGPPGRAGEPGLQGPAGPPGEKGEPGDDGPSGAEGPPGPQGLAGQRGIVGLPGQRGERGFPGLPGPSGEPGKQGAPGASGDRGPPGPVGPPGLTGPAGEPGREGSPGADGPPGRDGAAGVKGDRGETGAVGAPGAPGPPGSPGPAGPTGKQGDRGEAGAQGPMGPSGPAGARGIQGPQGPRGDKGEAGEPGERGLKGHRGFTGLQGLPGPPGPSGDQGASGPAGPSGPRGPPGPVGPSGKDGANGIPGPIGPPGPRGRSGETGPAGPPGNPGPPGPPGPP
Method: as §1

cartilage = conditions: for average depth of peptide coupling: with tTG, chondroitinase ABC digested cartilage, along the cut edge
Method: For the coupling of peptide conjugates to cartilage sections, osteochondral plugs were extracted from adult bovine metacarpophalangeal joints using a hole punch with a diameter of 0.793 cm. Samples were then frozen in tissue freezing media and stored at −80° C. until use. Vertical sections (25 μm), which included the articular surface as well as a portion of the underlying bone, were cut using a cryostat (Microm HM505N, Carl Zeiss) and the freezing media was removed with 3 washes of Tris buffered saline (TBS) (50 mM Tris, 100 mM NaCl) at pH 7.4. For the penetration studies, four millimeter by two millimeter rectangular samples of cartilage were excised from adult bovine metacarpophalangeal joint to a depth of 200-250 microns from the articular surface. Samples were frozen as described earlier for later use, at which time they were thawed and rinsed in TBS.
Four millimeter by two millimeter rectangular samples of cartilage were thawed and rinsed, after which the chondroitinase ABC digestion and tTG reactions with the peptide and peptide-PEG conjugates were performed as stated above. […] The samples were then frozen in tissue freezing media followed by cutting using a cryostat. Twenty micron thick vertical sections were collected from each cartilage piece, rinsed in TBS, blocked with 1% BSA TBS containing 0.1% Tween (TBST), and incubated with peroxidase conjugated anti-biotin antibody at 5 μg/mL in 1% BSA in TBS-T for 2 hours at room temperature. Samples were rinsed 4 times with TBS and 4 times with distilled water. Finally, the anti-biotin antibody was detected using a DAB kit which contains the peroxidase substrate 3,3′-diaminobenzidine yielding a brown color. Samples were imaged using a Leica microscope (brightfield) and a SPOT RT digital camera.
Adobe Photoshop (Adobe, Inc, San Jose, Calif.) was used to measure the depth to which the peptide and peptide-PEG conjugates were detected. The depth of staining into the cartilage along the cut surface perpendicular to the articular surface was measured at distances of 60, 120 and 180 microns from the articular surface for each sample. The average depth of staining for each sample was calculated from these three measurements. For each peptide and peptide-PEG conjugate, an overall mean depth of staining was determined from the measurements of three samples.
In a separate series of experiments, 2 mm by 4 mm by 200-250 μm pieces of cartilage were incubated with each peptide-PEG conjugate and tTG. At the completion of the reaction, the cartilage pieces were frozen and sectioned and the coupled peptide conjugates were detected with a perioxidase anti-biotin antibody. The bound antibody was detected with DAB reagent which forms a brown precipitate in the presence of perioxidase. […] The depth of peptide penetration and coupling was measured along the cut edge at 60, 120, and 180 μm from the articular surface as shown schematically in FIG. 6.

cartilage sections = test: Coupling of peptide conjugates to cartilage sections via tTG, fluorescein anti-biotin staining; format: biochemical, bovine
Method: Partial depolymerization of glycosaminoglycans in the tissue was accomplished by digesting with chondroitinase ABC at 40 mU/mL in 50 mM Tris, 70 mM sodium acetate and 0.01% bovine serum albumin (BSA) at pH 8 for 30 minutes at 37° C. Samples were then rinsed 3 times with TBS and blocked with 1% BSA in TBS for one hour at room temperature. The tTG reaction conditions used were similar to a previously described method. (See, Aeschlimann D, Wetterwald A, Fleisch H, and Paulsson M. Expression of tissue transglutaminase in skeletal tissues correlates with events of terminal differentiation of chondrocytes. Journal of Cell Biology 1993; 120: 1461-1470.) The cartilage sections were incubated in 500 μL of 50 μM peptide or peptide-PEG conjugate, 0.5 U/mL tTG, 5 mM CaCl2, 2.5 mM dithiothreitol and 100 mM Tris, at pH 8.3 for 30 min at 37° C. Control experiments were performed in the absence of tTG. After completion of the tTG reaction, the solution was removed and samples were rinsed 3 times with 1% BSA in TBS for 5 minutes each. The cartilage sections were then incubated with fluorescein conjugated anti-biotin antibody at 10 μg/mL in 1% BSA in TBS for 2 hours at room temperature. Samples were rinsed 4 times with TBS for 5 minutes each, followed by blocking with 10% donkey serum for 1 hour and incubation with rabbit anti-collagen II antibody in TBS containing 10% donkey serum for 1 hour. The samples were rinsed 3 times with 10% donkey serum in TBS and then incubated with Texas Red conjugated donkey anti-rabbit antibody. Samples were rinsed again with TBS and then imaged using a Leica epifluorescent microscope (λex=495 nm, λem=520 for fluorescein and λex=596 nm, λem=620 for Texas Red) and a SPOT RT digital camera (Diagnostic Instruments, Sterling Heights, Mich.).
Images were analyzed using Metamorph image analysis software (Molecular Devices, Sunnyvale, Calif.). Fluorescein fluorescence was measured at three randomly selected areas of the middle zone on each cartilage section image and then averaged. A similar procedure was utilized to determine Texas Red fluorescence. The fluorescein fluorescence intensity was then normalized to the fluorescence of the Texas Red for each cartilage section image in order to account for potential ECM differences between sections. Finally, the average green fluorescence for each peptide-PEG conjugate was then normalized by dividing by the red fluorescence.

osteopontin = biological target: T4, osteopontin (Homo sapiens, UniProt P10451); test: Reaction of peptide conjugates with cartilage ECM protein in solution via tTG; format: biochemical; conditions: for reactivity / normalized band intensity on western blot: osteopontin, 500 μM conjugate, 0.05 U/mL tTG, 30 min at 37° C.; for number of conjugate molecules coupled per protein (MALDI-TOF): osteopontin with tTG
T4 construct: purchased R&D Systems, Minneapolis, Minn
T4 sequence (P10451 17-314, species assumed): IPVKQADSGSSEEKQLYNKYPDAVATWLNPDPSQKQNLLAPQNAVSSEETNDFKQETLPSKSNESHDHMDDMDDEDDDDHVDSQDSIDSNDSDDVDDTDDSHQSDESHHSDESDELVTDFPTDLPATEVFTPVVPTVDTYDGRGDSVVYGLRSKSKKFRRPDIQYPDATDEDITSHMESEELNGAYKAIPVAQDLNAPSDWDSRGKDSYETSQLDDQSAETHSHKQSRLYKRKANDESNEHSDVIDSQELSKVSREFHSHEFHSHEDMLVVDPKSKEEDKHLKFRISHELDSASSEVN
Method: as §1

[4] = system: Fresh articular cartilage; conditions: in the presence of enzyme
tTG = biological target: T5, tTG (UniProt P08587); conditions: reactivity with the enzyme (tTG); cited from earlier work
T5 sequence (P08587 1-690): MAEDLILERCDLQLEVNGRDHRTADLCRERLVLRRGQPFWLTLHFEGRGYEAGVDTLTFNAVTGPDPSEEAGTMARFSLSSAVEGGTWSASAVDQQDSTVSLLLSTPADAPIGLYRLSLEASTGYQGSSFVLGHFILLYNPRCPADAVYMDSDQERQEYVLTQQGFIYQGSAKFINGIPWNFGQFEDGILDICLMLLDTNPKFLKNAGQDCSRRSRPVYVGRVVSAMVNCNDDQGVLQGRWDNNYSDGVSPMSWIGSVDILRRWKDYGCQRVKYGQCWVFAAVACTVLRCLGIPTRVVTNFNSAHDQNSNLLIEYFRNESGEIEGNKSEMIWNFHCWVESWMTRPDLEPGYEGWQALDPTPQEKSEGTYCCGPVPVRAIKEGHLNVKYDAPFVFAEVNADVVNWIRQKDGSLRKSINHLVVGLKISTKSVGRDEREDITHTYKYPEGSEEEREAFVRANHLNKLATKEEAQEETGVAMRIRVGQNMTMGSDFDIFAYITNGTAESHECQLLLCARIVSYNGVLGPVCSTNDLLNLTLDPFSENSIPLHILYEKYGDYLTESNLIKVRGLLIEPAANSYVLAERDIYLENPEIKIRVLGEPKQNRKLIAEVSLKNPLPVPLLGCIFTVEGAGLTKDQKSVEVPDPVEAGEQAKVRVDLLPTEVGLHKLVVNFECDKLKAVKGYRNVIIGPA

[5] = in the presence of tTG, 50 μM conjugate, 0.5 U/mL tTG, 30 min at 37° C.

Compound | reactivity / normalized band intensity on western blot (osteonectin) | reactivity / normalized band intensity on western blot (Fibronectin) | reactivity / normalized band intensity on western blot (collagen II) | average depth of peptide coupling (cartilage) | coupling to cartilage (anti-biotin fluorescence) (cartilage sections; [5]) | reactivity / normalized band intensity on western blot (osteopontin) | further results
C[C@]12CCC(=O)C=C1CC[C@@H]1[C@@H]2[C@@H](O)C[C@@]2(C)[C@H]1CC[C@]2(O)C(=O)COC(=O)CCC(=O)NCC(=O)N[C@@H](Cc1ccccc1)C(=O)N[C@@H](CCCCN)C(=O)NCC(=O)O [TRIP-C, Hydrocortisone-GFKG prodrug] (X1-GFKG-OH) |  |  |  |  |  |  | T50% ([1]; 1.0 mM, 75% normal synovial fluid in Buffer 1, 37° C.): 11.1 min; times more rapid hydrolysis in synovial fluid than in Buffer 1 ([1]; 37° C.): 4; hydrocortisone released from tissue-bound prodrug ([2]; 4 to 48 hours, 37° C., Buffer 1, bovine synovial fluid, human OA synovial fluid): statistical increase in the amount of hydrocortisone released; hydrocortisone hydrolysis from coupled prodrug, TRIP-C compared with TRIP-PC ([2]; any of the fluids utilized): no difference in hydrocortisone hydrolysis
C[C@]12CCC(=O)C=C1CC[C@@H]1[C@@H]2[C@@H](O)C[C@@]2(C)[C@H]1CC[C@]2(O)C(=O)CO [hydrocortisone] |  |  |  |  |  |  | immunofluorescence on articular surface (anti-hydrocortisone) ([3]; 1.0 mM): no immunofluorescence was detected; nonspecific adsorption, hydrocortisone detected on the tissue surface [3]: minimal amount of hydrocortisone detected
Biotin-(EO)2-FKG-NH2 [B2K] | statistically greater than for B2Q or B72Q | statistically greater than for B2Q or B72Q | statistically greater than for B2Q or B72Q; also recorded: reactive toward collagen II | 13 μm | enzymatically crosslinked to the cartilage sections |  | depth of staining (cartilage; undigested cartilage tissue treated with tTG): 5.8 microns; coupling to cartilage (anti-biotin fluorescence) (cartilage sections; in the absence of tTG): no observed fluorescence
Biotin-(EO)2-FOG-NH2 [B2O] | did not demonstrate crosslinking | did not demonstrate crosslinking | did not demonstrate crosslinking |  | no coupling was detected | did not demonstrate crosslinking | 
Biotin-(EO)2-GNNNLG-NH2 [B2N] | did not demonstrate crosslinking | did not demonstrate crosslinking | did not demonstrate crosslinking |  | no coupling was detected | did not demonstrate crosslinking | 
Biotin-(EO)2-GQQQLG-NH2 [B2Q] |  |  | less reactive toward collagen II in solution | 9.8 μm | enzymatically crosslinked to the cartilage sections | significantly greater normalized band intensity than the B2K and B72K | coupling to cartilage (anti-biotin fluorescence) (cartilage sections; in the absence of tTG): no observed fluorescence
Biotin-FKG-HA |  |  |  |  |  |  | anti-biotin antibody staining of tissue surface [4]: intense staining
Biotin-PEG-FKG-NH2 [B72K] | statistically greater than for B2Q or B72Q | statistically greater than for B2Q or B72Q | statistically greater than for B2Q or B72Q; also recorded: reactive toward collagen II | 9.8 μm | enzymatically crosslinked to the cartilage sections |  | number of conjugate molecules coupled per protein (MALDI-TOF) (osteopontin): one; number of conjugate molecules coupled per protein (MALDI-TOF) (osteonectin): up to 4
Biotin-PEG-G-NH2 [B72] | did not demonstrate crosslinking | did not demonstrate crosslinking | did not demonstrate crosslinking |  | lack of fluorescence | did not demonstrate crosslinking | 
Biotin-PEG-GQQQLG-NH2 [B72Q] |  |  | less reactive toward collagen II in solution | 8.6 μm | enzymatically crosslinked to the cartilage sections |  | number of conjugate molecules coupled per protein (MALDI-TOF) (osteopontin): up to two; number of conjugate molecules coupled per protein (MALDI-TOF) (osteonectin): up to 3
FKG |  |  |  |  | bind to cartilage surfaces via tTG |  | specificity (tTG): 560 mM⁻¹ min⁻¹
GQQQLG (GQQQLG-NH2) [glutamine (acyl donor) peptide substrate of tTG] |  |  |  |  | bind to cartilage surfaces via tTG |  | specificity (tTG): 34.1 mM⁻¹ min⁻¹
